Read-outs that look alike come from different tables or passages of the source.
Target: T1, epidermal growth factor receptor tyrosine kinase (Homo sapiens, UniProt P00533)
T1 construct: A native 170,000 epidermal growth factor receptor-kinase complex from shed plasma membrane vesicles; endogenous in cells
Assay: EGF receptor tyrosine kinase assay (P^32 incorporation in GAT)
Assay type: biochemical
Conditions: for inhibition at 100 µM: EGRF-R, read-out: % Inhibition at 100 μM (EGFR TK)
Experimental: At the time of assay, membranes were solubilized in 4% Triton X-100 and glycerol. The reaction is carried out in wells of a 96-well microtiter plate in a total volume of […]. Buffer containing 20 mMHepes (pH 7.4), 15 mMMgCl2, mM MnCl2, and 0.02% BSA followed by […] of membrane protein and 150 ng of epidermal growth factor. The plates are incubated for 10 minutes at room temperature to activate the receptor kinase. […] ATP plus or minus compound are added and incubated 10 minutes at room temperature.

[1] = Table 2, EGRF-R, IC50 entries, read-out: IC50 (EGFR TK)

T1 sequence (P00533 25-1210): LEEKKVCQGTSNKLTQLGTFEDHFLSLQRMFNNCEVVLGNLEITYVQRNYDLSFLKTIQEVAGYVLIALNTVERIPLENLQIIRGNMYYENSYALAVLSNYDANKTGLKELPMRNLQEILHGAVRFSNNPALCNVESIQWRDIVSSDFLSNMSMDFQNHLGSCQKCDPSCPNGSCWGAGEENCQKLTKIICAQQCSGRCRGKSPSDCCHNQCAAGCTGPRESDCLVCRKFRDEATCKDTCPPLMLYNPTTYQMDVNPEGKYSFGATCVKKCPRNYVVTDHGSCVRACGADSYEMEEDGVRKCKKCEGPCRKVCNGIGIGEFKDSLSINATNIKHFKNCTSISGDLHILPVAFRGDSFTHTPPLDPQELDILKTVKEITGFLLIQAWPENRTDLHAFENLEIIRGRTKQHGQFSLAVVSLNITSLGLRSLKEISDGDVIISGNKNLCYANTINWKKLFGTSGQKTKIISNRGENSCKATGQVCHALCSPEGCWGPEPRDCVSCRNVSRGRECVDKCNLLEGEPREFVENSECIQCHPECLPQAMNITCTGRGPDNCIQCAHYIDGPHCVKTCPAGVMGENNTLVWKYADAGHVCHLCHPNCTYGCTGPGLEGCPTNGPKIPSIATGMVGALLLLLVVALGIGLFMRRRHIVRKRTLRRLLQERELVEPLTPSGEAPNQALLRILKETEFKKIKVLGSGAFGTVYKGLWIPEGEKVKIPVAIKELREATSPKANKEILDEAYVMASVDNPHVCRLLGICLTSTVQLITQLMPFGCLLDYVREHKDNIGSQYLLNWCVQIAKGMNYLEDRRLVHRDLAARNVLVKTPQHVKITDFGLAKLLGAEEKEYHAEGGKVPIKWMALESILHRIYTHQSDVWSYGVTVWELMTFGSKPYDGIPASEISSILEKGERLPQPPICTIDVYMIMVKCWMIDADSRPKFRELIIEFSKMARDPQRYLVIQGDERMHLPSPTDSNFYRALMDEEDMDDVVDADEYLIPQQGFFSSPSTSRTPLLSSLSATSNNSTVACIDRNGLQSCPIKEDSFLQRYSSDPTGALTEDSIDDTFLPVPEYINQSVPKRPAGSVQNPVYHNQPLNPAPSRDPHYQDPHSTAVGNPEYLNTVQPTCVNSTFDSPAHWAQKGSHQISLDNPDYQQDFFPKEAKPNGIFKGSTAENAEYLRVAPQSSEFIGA
T1 sequence (P01133 971-1023 partner limits assumed): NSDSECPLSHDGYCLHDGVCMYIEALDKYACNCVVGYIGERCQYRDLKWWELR

COC(=O)CCC1C(=S)N(C)c2ccccc21 (stereo not drawn) [Compound 11, methyl 3-(1-methyl-2-thioxo-3-indolinyl)propanoate]
inhibition at 100 µM: 24%

CN(C)C(=O)CCc1c(SSc2[nH]c3ccccc3c2CCC(=O)N(C)C)[nH]c2ccccc12 [Compound 53]
IC50 [1]: 4.2 µM

CCN(CC)CCn1c([Se][Se]c2c(C(=O)NC)c3ccccc3n2CCN(CC)CC)c(C(=O)NC)c2ccccc21 [Compound 135, 2,2'-diselenobis [1-[2-(diethylamino)ethyl] -N-methyl-1H-indole-3-carboxamide]]
IC50 (read-out: IC50 (EGFR TK)): 6.9 µM

COC(=O)c1cccc(NC(=O)c2c(SSc3c(C(=O)Nc4cccc(C(=O)OC)c4)c4ccccc4n3C)n(C)c3ccccc23)c1 [Compound 106, 2,2'-dithiobis [N-(3'-carbomethoxy)phenyl-1-methylindolyl-3-carboxamide]]
inhibition at 100 µM: 34%

CC(=O)NC(Cc1c(SSc2[nH]c3ccccc3c2CC(NC(C)=O)C(=O)NCc2ccccc2)[nH]c2ccccc12)C(=O)NCc1ccccc1 (racemic) [Compound 60]
inhibition at 100 µM: 53%

Cn1c(SSc2c(CCCC(=O)O)c3ccccc3n2C)c(CCCC(=O)O)c2ccccc21 [Compound 66]
IC50 [1]: 8.3 µM

COC(=O)CCCC1C(=S)Nc2ccccc21 (stereo not drawn) [Compound 17, methyl 4-(2-thioxo-3-indolinyl)butanoate]
inhibition at 100 µM: 12.5%

COC(=O)c1ccc(CNC(=O)c2c(SSc3c(C(=O)NCc4ccc(C(=O)OC)cc4)c4ccccc4n3C)n(C)c3ccccc23)cc1 [Compound 110, 2,2'-dithiobis [N-(4'-carbomethoxy)benzyl 1-methylindolyl-3-carboxamide]]
IC50 [1]: 13 µM

CC(=O)OC(Cc1c(SSc2[nH]c3ccccc3c2CC(OC(C)=O)C(=O)NCc2ccccc2)[nH]c2ccccc12)C(=O)NCc1ccccc1 (stereo not drawn) [Compound 63]
IC50 [1]: 60 µM

Cc1ccc2c(CCC(=O)O)c(SSc3[nH]c4cc(C)ccc4c3CCC(=O)O)[nH]c2c1 [Compound 43, bis[methylindolyl-3-propanoate-(2)]disulfide]
IC50 [1]: 2.9 µM

O=C(NCc1ccccc1)c1c(SSc2[nH]c3ccccc3c2C(=O)NCc2ccccc2)[nH]c2ccccc12 [Compound 125, 2,2'-dithiobis [N-benzylindolyl-3-carboxamide]]
inhibition at 100 µM: 78%

O=C(O)CCCC1C(=S)Nc2ccccc21 (stereo not drawn) [Compound 15, 4-(2-thioxo-3-indolinyl)butanoic acid]
IC50 [1]: 6.8 µM

COC(=O)c1ccc(C(=O)c2c(SSc3c(C(=O)c4ccc(C(=O)OC)cc4)c4ccccc4n3C)n(C)c3ccccc23)cc1 [Compound 102, bis[3-(4'-carbomethoxybenzoyl)-1-methylindole-(2)]disulfide]
IC50 [1]: 6.1 µM

COC(=O)c1ccccc1NC(=O)c1c(SSc2c(C(=O)Nc3ccccc3C(=O)OC)c3ccccc3n2C)n(C)c2ccccc12 [Compound 108, 2,2'-dithiobis [N-(2-carbomethoxy)phenyl-1-methylindolyl-3-carboxamide]]
inhibition at 100 µM: 20%

Cn1c(SSc2c(C(=O)Nc3ccccc3)c3cccc(Cl)c3n2C)c(C(=O)Nc2ccccc2)c2cccc(Cl)c21 [Compound 74, bis [N-phenyl-7-chloro-1-methylindolyl-3-carboxamide-(2)]disulfide]
inhibition at 100 µM: 23%

CN1C(=S)C(C(=O)c2ccc(C(=O)O)cc2)c2ccccc21 (stereo not drawn) [Compound 25, 3-(4'-carboxybenzoyl)-1-methyl-2-indolinethione]
IC50 [1]: 8.7 µM

Cn1c([Se][Se]c2c(C(=O)OC(C)(C)C)c3ccccc3n2C)c(C(=O)OC(C)(C)C)c2ccccc21 [Compound 129, 2,2'-diselenobis [1-methyl-1H-indole-3-carboxylic acid, t-butyl ester]]
inhibition at 100 µM: 31%

CN1C(=S)C(CCCC(=O)O)c2ccccc21 (stereo not drawn) [Compound 16, 4-(1-methyl-2-thioxo-3-indolyl) butanoic acid]
IC50 [1]: 23 µM

Cn1c(S)c(C(=O)Nc2ccccc2)c2cccnc21 [Compound 19, N-phenyl (1-methyl-7-aza-2-thioxo-3-indolinyl)carboxamide]
inhibition at 100 µM: 10%

Cn1c([Se][Se]c2c(C(=O)O)c3ccccc3n2C)c(C(=O)O)c2ccccc21 [Compound 130, 2,2'-diselenobis [1-methyl-1H-indole-3-carboxylic acid]]
IC50 (read-out: IC50 (EGFR TK)): 3.5 µM

CCOC(=O)CCC1C(=S)N(C)c2ccccc21 (stereo not drawn) [Compound 12, ethyl 3-(1-methyl-2-thioxo-3-indolinyl)propanoate]
inhibition at 100 µM: 3%

Cc1cccc2c(CCC(=O)O)c(SSc3[nH]c4c(C)cccc4c3CCC(=O)O)[nH]c12 [Compound 45, bis[7-methylindolyl-3-propanoic acid-(2)] disulfide]
IC50 [1]: 1.6 µM

COC(=O)CC1C(=S)N(C)c2ccccc21 (stereo not drawn) [Compound 4, methyl 2-(1-methyl-2-thioxo-3-indolinyl)acetate]
inhibition at 100 µM: 27%

Cn1c(SSc2c(CCC(=O)O)c3ccccc3n2C)c(CCC(=O)O)c2ccccc21 [Compound 37]
IC50 [1]: 3.3 µM

N#CCCc1c(SSc2[nH]c3ccccc3c2CCC#N)[nH]c2ccccc12 [Compound 48, 2,2'-dithiobis[3-indolylpropionitrile]]
IC50 [1]: 35.5 µM

COC(=O)c1ccc(NC(=O)c2c(SSc3c(C(=O)Nc4ccc(C(=O)OC)cc4)c4ccccc4n3C)n(C)c3ccccc23)cc1 [Compound 104, 2,2'-dithiobis [N-(4'-carbomethoxy)phenyl-1-methylindolyl-3-carboxamide]]
inhibition at 100 µM: 20%

CCOC(=O)CC1C(=S)N(C)c2ccccc21 (stereo not drawn) [Compound 5, ethyl 2-(1-methyl-2-thioxo-3-indolinyl)acetate]
inhibition at 100 µM: 4%

Cn1c(SSc2c(C#N)c3ccccc3n2C)c(C#N)c2ccccc21 [Compound 120]
IC50 [1]: 6.9 µM

CN1C(=S)C(CCC(=O)O)c2ccccc21 (stereo not drawn) [Compound 8, 3-(1-methyl-2-thioxo-3-indolinyl)propanoic acid]
IC50 [1]: 8.5 µM

CNC(=O)CCc1c(SSc2[nH]c3ccccc3c2CCC(=O)NC)[nH]c2ccccc12 [Compound 51]
IC50 [1]: 7 µM

CC(=O)c1c(SSc2c(C(C)=O)c3ccccc3n2C)n(C)c2ccccc12 [Compound 121, 2,2'-dithiobis(3-acetyl-1-methylindole)]
IC50 [1]: 5.6 µM

CN1C(=S)C(C(=O)Nc2ccccc2)c2cc(Cl)ccc21 (stereo not drawn) [Compound 20, N-phenyl 5-chloro-1-methyl-2-thioxoindole-3-carboxamide]
IC50 [1]: 9 µM

CN1C(=S)C(CC(=O)O)c2ccccc21 (stereo not drawn) [Compound 2, 2-(1-methyl-2-thioxo-3-indolinyl)acetic acid]
inhibition at 100 µM: 26%

CNC(=O)c1c(SSc2[nH]c3ccccc3c2C(=O)NC)[nH]c2ccccc12 [Compound 127, 2,2'-dithiobis[N-methylindolinyl-3-carboxamide]]
IC50 [1]: 6.8 µM

CCOC(=O)CCc1c(SSc2[nH]c3ccc(C)cc3c2CCC(=O)OCC)[nH]c2ccc(C)cc12 [Compound 42, bis[ethyl 5-methylindolyl-3-propanoate-(2)]disulfide]
inhibition at 100 µM: 26%

CC(=O)Oc1ccc2c(C(=O)Nc3ccccc3)c(SSc3c(C(=O)Nc4ccccc4)c4ccc(OC(C)=O)cc4n3C)n(C)c2c1 [Compound 93, 2,2'-dithiobis [N-phenyl-6-acetoxy-1-methylindolyl-3-carboxamide]]
inhibition at 100 µM: 30%

O=C(O)CC1C(=S)Nc2ccccc21 (stereo not drawn) [Compound 1, 2-(2-thioxo-3-indolinyl)acetic acid]
IC50 [1]: 14.9 µM

O=C(CCc1c(SSc2[nH]c3ccccc3c2CCC(=O)NCc2ccc(C(=O)O)c(O)c2)[nH]c2ccccc12)NCc1ccc(C(=O)O)c(O)c1 [Compound 58]
inhibition at 100 µM: 68%

O=C(CCC1C(=S)Nc2ccccc21)NCc1ccccc1 (stereo not drawn) [Compound 13, N-benzyl 3-(2-thioxo-3-indolinyl) propanamide]
inhibition at 100 µM: 43%

NC(=O)CCC1C(=S)Nc2ccccc21 (stereo not drawn) [Compound 14, 3-(2-thioxo-3-indolinyl)propanamide]
IC50 [1]: 22 µM

CC(=O)Oc1cccc2c(C(=O)Nc3ccccc3)c(SSc3c(C(=O)Nc4ccccc4)c4cccc(OC(C)=O)c4n3C)n(C)c12 [Compound 95, 2,2'-dithiobis[N-phenyl-7-acetoxy-1-methylindolyl-3-carboxamide]]
IC50 [1]: 9.4 µM

O=C(Nc1ccccc1)c1c(SSc2[nH]c3ccccc3c2C(=O)Nc2ccccc2)[nH]c2ccccc12 [Compound 126, 2,2'-dithiobis [N-phenylindolyl-3-carboxamide]]
inhibition at 100 µM: 60%

O=[N+]([O-])CCc1c(SSc2[nH]c3ccccc3c2CC[N+](=O)[O-])[nH]c2ccccc12 [Compound 49, 2,2'-dithiobis[3-(2-nitroethyl)indole]]
IC50: 84.1 µM

O=C(NCc1ccccc1)C(O)Cc1c(SSc2[nH]c3ccccc3c2CC(O)C(=O)NCc2ccccc2)[nH]c2ccccc12 (stereo not drawn) [Compound 64, 2,2'-dithiobis[α-hydroxy-N -(phenylmethyl)-1H-indole-3-propanamide]]
IC50 [1]: 29 µM

Cn1c(SSc2c(C(=O)Nc3cccc(C(=O)O)c3)c3ccccc3n2C)c(C(=O)Nc2cccc(C(=O)O)c2)c2ccccc21 [Compound 107, 2,2'-dithiobis[N-(3-carboxy)phenyl-1-methylindolyl-3-carboxamide]]
IC50 [1]: 12 µM

Cn1c(SSc2c(C(=O)Nc3ccccn3)c3ccccc3n2C)c(C(=O)Nc2ccccn2)c2ccccc21 [Compound 122, 2,2'-dithiobis [N-(2'-pyridyl)-1-methylindole-3-carboxamide]]
inhibition at 100 µM: 51%

Cn1c(SSc2c(C(=O)c3ccc(C(=O)O)cc3)c3ccccc3n2C)c(C(=O)c2ccc(C(=O)O)cc2)c2ccccc21 [Compound 101, bis[3-(4'-carboxybenzoyl)-1-methylindole-(2)]disulfide]
IC50 [1]: 5.5 µM

O=C(O)CCCc1c(SSc2[nH]c3ccccc3c2CCCC(=O)O)[nH]c2ccccc12 [Compound 65, bis[indolyl-3-butanoic acid-(2)]disulfide]
IC50 [1]: 17.8 µM

— patent publication US5464861A, “2-thioindoles (selenoindoles) and related disulfides (selenides) which inhibit protein tyrosine kinases and which have antitumor properties” (Warner-Lambert, priority 1993, dated 1995)
